What all share (assay): NCI anticancer screen, dose series, 48 h
Experiment [1] relates to 786-0 renal.
Experiment [2] concerns HCC-2998 colon.
The test system of experiment [3] is K-562 leukemia.
Experiment [4] deals with KM12 colon.
Experiment [5] relates to NCI-H226 lung.
For experiment [6], the system named is NCI-H460 lung.
Experiment [7] relates to OVCAR-8 ovarian.
In experiment [8] the test system is SF-268 CNS.
Experiment [9] has as its system SF-295 CNS.
Experiment [10] relates to SN12C renal.
The subject of experiment [11] is SNB-75 CNS.
The subject of experiment [12] is HL-60(TB) leukemia.
Experiment [13] has as its system MOLT-4 leukemia.
Experiment [14] has as its system CAKI-1 renal.

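All cell lines were grown in 96-well plates and treated with compound for 48 hours. GI50 = concentration required for 50% inhibition of growth. The concentration for full growth arrest is given as TGI.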 Some results are limits rather than exact numbers.

As for `Cc1ccc(S(=O)(=O)c2ccc(C)cc2[N+](=O)[O-])c([N+](=O)[O-])c1`, the TGI in [1], in [2], in experiment [3], in experiment [4], in experiment [5] and in [6] was greater than 100 µM in each case. Moreover, the TGI in experiment [7], in [8], in [9], in [10] and in [11] was greater than 100 µM in each case.

Consider `N#CCCC(C#N)(C#N)CCC#N`, for which the TGI in experiment [1], in experiment [2], in experiment [12], in experiment [3], in experiment [4] and in [13] was greater than 100 µM in each case. Also, the TGI in [5], in [6], in experiment [7], in experiment [8], in [9] and in experiment [10] was greater than 100 µM throughout.

On to `COP12(OC)NC(=O)OC1(C(F)(F)F)c1ccccc1O2` (stereo unspecified), for which the TGI in [1], in experiment [12], in [3], in experiment [4], in experiment [13] and in [5] was greater than 100 µM in each case. Further, the TGI in experiment [6], in experiment [7], in [8], in [9], in experiment [10] and in experiment [11] was greater than 100 µM in each case.

As to `CCOC(=O)/C(C1=NCCN1C)=C(\O)c1ccccc1`, the TGI in [1], in experiment [14], in experiment [2], in experiment [12], in experiment [3] and in experiment [4] was greater than 100 µM in each case. The TGI in experiment [13], in [5], in [6], in [7], in experiment [8] and in experiment [9] was greater than 100 µM each time. Further, in experiment [10], the TGI was greater than 100 µM.

Turning to `O=c1[nH]c(=O)n([C@H]2C[C@@H](CO)[C@@H](O)C2)cc1I`, the TGI in experiment [1], in [14], in experiment [2], in experiment [12], in experiment [3] and in [4] was greater than 100 µM each time. Also, the TGI in experiment [13], in experiment [5], in experiment [6], in experiment [7], in [8] and in [10] was greater than 100 µM throughout. In addition, the TGI in [11] was greater than 100 µM.

`O=c1cccccc1[O-].O=c1cccccc1[O-].O=c1cccccc1[O-].[Nd+3]`: the TGI in experiment [1], in [14], in [2], in experiment [12], in experiment [3] and in [4] was greater than 100 µM each time. The TGI was greater than 100 µM in [13]; greater than 100 µM in [5]; greater than 100 µM in experiment [6]; 90.7 µM in experiment [7]; greater than 100 µM in [9]; greater than 100 µM in [10]. In experiment [10], the GI50 is 35.6 µM.

With `c1cc2c(cc1C1OCC3C(c4ccc5c(c4)OCO5)OCC13)OCO2` (stereo unspecified), the TGI in experiment [1], in [2], in experiment [3], in [4], in [13] and in [5] was greater than 100 µM in each case. Further, the TGI in experiment [6], in [7], in experiment [8], in experiment [9], in experiment [10] and in experiment [11] was greater than 100 µM in each case.

Turning to `C#CN1C(=O)c2c(c(-c3ccccc3)c(-c3ccc(Oc4ccc(-c5c(-c6ccccc6)c6c(c(-c7ccccc7)c5-c5ccccc5)C(=O)N(C#C)C6=O)cc4)cc3)c(-c3ccccc3)c2-c2ccccc2)C1=O`, the TGI in experiment [1], in [2], in experiment [12], in [3], in experiment [4] and in [13] was greater than 100 µM each time. Further, the TGI in [6], in [7], in experiment [8], in [9], in experiment [10] and in experiment [11] was greater than 100 µM in each case.

Take `CN1CCCS/C1=C1/SC(=S)N(c2ccccc2)C1=O`: the TGI in experiment [1], in [14], in experiment [12], in experiment [3], in experiment [4] and in experiment [13] was greater than 100 µM throughout. The TGI in [5], in experiment [6], in experiment [7], in experiment [8], in experiment [9] and in experiment [10] was greater than 100 µM in each case. This compound showed a TGI in [11] greater than 100 µM.
